In ChEMBL document CHEMBL4368888, “Design, synthesis and biological evaluation of tryptamine salicylic acid derivatives as potential antitumor agents” (Medchemcomm, 2019) one finds IC50 data, which are given here for 36 compounds.

Format in all cases: functional, cell-based
For one assay, the system named is MCF7. Description: Antiproliferative activity against human MCF7 cells after 48 hrs by MTT assay. Conditions: MCF7, 48 h. In general terms: Formazan colour is commonly taken as a measure of viable cells.
For a further assay, the system named is A549. Description: Antiproliferative activity against human A549 cells after 48 hrs by MTT assay. As to conditions: A549, 48 h.
The test system of a further assay is MGC-803. Description: Antiproliferative activity against human MGC803 cells after 48 hrs by MTT assay. Conditions: MGC-803, 48 h.
For another assay, the system named is HepG2. Description: Antiproliferative activity against human HepG2 cells after 48 hrs by MTT assay. Conditions: HepG2, 48 h.
The next assay deals with HeLa. Description: Antiproliferative activity against human HeLa cells after 48 hrs by MTT assay.

Broadly, the IC50 is the concentration needed to halve the response being measured. Low readings indicate higher potency, high ones lower potency. Turning to `COc1ccc2[nH]cc(CCNC(=O)c3cc(Cl)ccc3O)c2c1`, the IC50 was greater than 100 µM in the assay on MCF7; greater than 100 µM in the assay with A549; 55 µM in the assay on MGC-803; 75 µM in the assay with HepG2; greater than 100 µM with HeLa.
On to `Cc1ccc(C(=O)NCCc2c[nH]c3ccc(F)cc23)c(O)c1`, for which the concentration for half-maximal inhibition (IC50) with MCF7 was greater than 100 µM; in the assay on A549 it was greater than 100 µM; in the assay with MGC-803, 60 µM; with HepG2, greater than 100 µM; with HeLa, greater than 100 µM.
For `COc1ccc2[nH]cc(CCNC(=O)c3cccc(C)c3O)c2c1`, the IC50 in the assay on MCF7 was 97 µM; in the assay on A549 it was greater than 100 µM; with MGC-803, 43 µM; in the assay with HepG2, 85 µM; in the assay with HeLa, 42 µM.
Take `Cc1ccc2[nH]cc(CCNC(=O)c3cccc(C)c3O)c2c1`: the IC50 in the assay on MCF7 was determined as 62 µM; with A549, 50 µM; in the assay on MGC-803, 38 µM; with HepG2 it was 64 µM; in the assay with HeLa, 61 µM.
As to `O=C(NCCc1c[nH]c2ccccc12)c1ccccc1O`, the IC50 in the assay on MCF7, in the assay on A549, in the assay on MGC-803, in the assay on HepG2 and in the assay with HeLa was greater than 100 µM in each case.
On to `O=C(NCCc1c[nH]c2ccc(Br)cc12)c1cc(Br)ccc1O`, for which the IC50 is greater than 100 µM in the assay with MCF7; 62 µM in the assay with A549; 80 µM in the assay with MGC-803; greater than 100 µM in the assay on HepG2; greater than 100 µM in the assay with HeLa.
Take `O=C(NCCc1c[nH]c2ccc(Cl)cc12)c1ccc(Cl)cc1O`: the IC50 came to 69 µM with MCF7; 46 µM in the assay with A549; 34 µM with MGC-803; 90 µM with HepG2; 64 µM in the assay on HeLa.
As for `O=C(NCCc1c[nH]c2ccc(Cl)cc12)c1ccccc1O`, the IC50 is 75 µM in the assay with MCF7; 60 µM with A549; 35 µM in the assay on MGC-803; greater than 100 µM in the assay on HepG2; 81 µM with HeLa.
As to `O=C(NCCc1c[nH]c2ccccc12)c1cc(Br)ccc1O`, the IC50 in the assay on MCF7 was greater than 100 µM; with A549 it was greater than 100 µM; with MGC-803 it was 78 µM; with HepG2, greater than 100 µM; in the assay with HeLa, greater than 100 µM.
For `Cc1cccc(C(=O)NCCc2c[nH]c3ccc(Cl)cc23)c1O`, the IC50 was found to be 70 µM with MCF7; 48 µM in the assay with A549; 56 µM with MGC-803; 62 µM in the assay on HepG2; 56 µM in the assay on HeLa.
As for `O=C(NCCc1c[nH]c2ccc(F)cc12)c1cc(Br)ccc1O`, the IC50 in the assay with MCF7 was greater than 100 µM; in the assay on A549, 77 µM; with MGC-803, 80 µM; in the assay with HepG2, greater than 100 µM; with HeLa, 76 µM.
Take `O=C(NCCc1c[nH]c2ccccc12)c1ccc(Cl)cc1O`: the IC50 with MCF7 is greater than 100 µM; with A549, greater than 100 µM; with MGC-803, 80 µM; in the assay with HepG2 it was greater than 100 µM; in the assay with HeLa it was greater than 100 µM.
Turning to `O=C(NCCc1c[nH]c2ccccc12)c1cc(Cl)ccc1O`, the concentration for half-maximal inhibition (IC50) was greater than 100 µM in the assay on MCF7; greater than 100 µM with A549; 74 µM in the assay on MGC-803; greater than 100 µM in the assay with HepG2; greater than 100 µM in the assay with HeLa.
Consider `Cc1ccc(C(=O)NCCc2c[nH]c3ccc(C)cc23)c(O)c1`, for which the IC50 is 60 µM with MCF7; 75 µM in the assay on A549; 38 µM in the assay with MGC-803; greater than 100 µM in the assay with HepG2; greater than 100 µM in the assay on HeLa.
In the case of `O=C(NCCc1c[nH]c2ccc(Cl)cc12)c1cc(Cl)ccc1O`, the IC50 in the assay on MCF7 worked out at 80 µM; in the assay with A549, 62 µM; in the assay on MGC-803 it was 31 µM; with HepG2 it was 89 µM; in the assay with HeLa it was 80 µM.
`O=C(NCCc1c[nH]c2ccc(Br)cc12)c1ccc(Cl)cc1O`: the IC50 with MCF7 amounted to 98 µM; in the assay on A549, 63 µM; in the assay with MGC-803, 43 µM; in the assay on HepG2, 92 µM; in the assay with HeLa, 71 µM.
In the case of `O=C(NCCc1c[nH]c2ccc(Cl)cc12)c1cc(Br)ccc1O`, the IC50 is 75 µM with MCF7; 63 µM in the assay with A549; 35 µM in the assay on MGC-803; greater than 100 µM in the assay on HepG2; 85 µM with HeLa.
Taken in the same sequence, the figures for `Cc1ccc2[nH]cc(CCNC(=O)c3cc(Br)ccc3O)c2c1` were 89 µM, 80 µM, 61 µM, 93 µM and greater than 100 µM.
For `COc1ccc2[nH]cc(CCNC(=O)c3ccc(C)cc3O)c2c1`, the IC50 in the assay on MCF7 was greater than 100 µM; with A549, greater than 100 µM; with MGC-803 it was 59 µM; in the assay with HepG2, 80 µM; in the assay on HeLa, 80 µM.
Turning to `O=C(NCCc1c[nH]c2ccc(F)cc12)c1ccccc1O`, the IC50 with MCF7 is greater than 100 µM; in the assay on A549, greater than 100 µM; with MGC-803, 63 µM; with HepG2, greater than 100 µM; in the assay on HeLa, greater than 100 µM.
On to `Cc1cccc(C(=O)NCCc2c[nH]c3ccccc23)c1O`, for which the IC50 in the assay with MCF7 was greater than 100 µM; with A549, greater than 100 µM; in the assay on MGC-803 it was 63 µM; with HepG2 it was greater than 100 µM; in the assay with HeLa, 82 µM.
For the compound `O=C(NCCc1c[nH]c2ccc(Br)cc12)c1ccccc1O`, the IC50 in the assay with MCF7 is 80 µM; in the assay with A549 it was 59 µM; with MGC-803 it was 37 µM; in the assay on HepG2, greater than 100 µM; with HeLa it was 79 µM.
Turning to `Cc1ccc2[nH]cc(CCNC(=O)c3ccc(Cl)cc3O)c2c1`, the IC50 was greater than 100 µM in the assay with MCF7; 68 µM in the assay with A549; 47 µM with MGC-803; 98 µM in the assay on HepG2; 93 µM with HeLa.
For `O=C(NCCc1c[nH]c2ccc(Br)cc12)c1cc(Cl)ccc1O`, the half-maximal inhibitory concentration (IC50) in the assay with MCF7 worked out at 73 µM; in the assay on A549, 63 µM; with MGC-803 it was 63 µM; with HepG2, 87 µM; with HeLa, 80 µM.
`COc1ccc2[nH]cc(CCNC(=O)c3cc(Br)ccc3O)c2c1`: the IC50 was greater than 100 µM with MCF7; greater than 100 µM in the assay with A549; 62 µM in the assay with MGC-803; greater than 100 µM in the assay on HepG2; 74 µM in the assay on HeLa.
As for `Cc1ccc2[nH]cc(CCNC(=O)c3cc(Cl)ccc3O)c2c1`, the IC50 in the assay with MCF7 is 79 µM; in the assay with A549, 89 µM; with MGC-803 it was 42 µM; in the assay on HepG2, greater than 100 µM; with HeLa, greater than 100 µM.
`COc1ccc2[nH]cc(CCNC(=O)c3ccccc3O)c2c1`: the IC50 in the assay on MCF7 is greater than 100 µM; with A549, greater than 100 µM; in the assay on MGC-803, 59 µM; in the assay on HepG2 it was greater than 100 µM; in the assay on HeLa it was 82 µM.
As for `O=c1[nH]cc(F)c(=O)[nH]1` [FLUOROURACIL], the IC50 is greater than 100 µM in the assay with A549, 58 µM in the assay on MGC-803, 68 µM with HepG2 and 50 µM in the assay on HeLa.
`Cc1ccc(C(=O)NCCc2c[nH]c3ccccc23)c(O)c1`: the IC50 is greater than 100 µM with MCF7; greater than 100 µM in the assay on A549; 80 µM in the assay on MGC-803; greater than 100 µM with HepG2; greater than 100 µM in the assay with HeLa.
On to `COc1ccc2[nH]cc(CCNC(=O)c3ccc(Cl)cc3O)c2c1`, for which the IC50 in the assay with MCF7 is greater than 100 µM; in the assay on A549, greater than 100 µM; with MGC-803 it was 56 µM; with HepG2, greater than 100 µM; in the assay on HeLa, 71 µM.
As for `Cc1cccc(C(=O)NCCc2c[nH]c3ccc(F)cc23)c1O`, the IC50 with MCF7 is greater than 100 µM; in the assay on A549, 67 µM; in the assay on MGC-803, 52 µM; with HepG2 it was greater than 100 µM; in the assay with HeLa, greater than 100 µM.
Consider `Cc1ccc(C(=O)NCCc2c[nH]c3ccc(Br)cc23)c(O)c1`, for which the IC50 in the assay on MCF7 turned out to be 80 µM; in the assay with A549, 61 µM; with MGC-803, 48 µM; with HepG2, 80 µM; in the assay with HeLa it was 61 µM.
For the compound `Cc1ccc2[nH]cc(CCNC(=O)c3ccccc3O)c2c1`, the IC50 in the assay on MCF7 is 93 µM; with A549, greater than 100 µM; in the assay on MGC-803, 45 µM; in the assay on HepG2, greater than 100 µM; in the assay with HeLa, greater than 100 µM.
Consider `O=C(NCCc1c[nH]c2ccc(F)cc12)c1cc(Cl)ccc1O`, for which the IC50 is greater than 100 µM in the assay with MCF7; 53 µM with A549; 53 µM in the assay on MGC-803; greater than 100 µM in the assay with HepG2; greater than 100 µM with HeLa.
With `O=C(NCCc1c[nH]c2ccc(F)cc12)c1ccc(Cl)cc1O`, the IC50 with MCF7 is greater than 100 µM; in the assay on A549, greater than 100 µM; in the assay on MGC-803, 62 µM; in the assay on HepG2 it was greater than 100 µM; in the assay on HeLa it was greater than 100 µM.
Regarding `Cc1ccc(C(=O)NCCc2c[nH]c3ccc(Cl)cc23)c(O)c1`, the IC50 with MCF7 was 73 µM; in the assay with A549 it was 63 µM; in the assay with MGC-803, 37 µM; with HepG2, greater than 100 µM; in the assay with HeLa, 64 µM.
